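Dose response: 5 concentrations. Exposure: 48 h. Format: 96-well plates. Endpoint: linear interpolation; highest concentration if not reached. At the TGI there is no net growth.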
Key:
Assay in all cases: NCI anticancer screen, dose series, 48 h
SK-OV-3 ovarian = test system: SK-OV-3 ovarian
UO-31 renal = test system: UO-31 renal
K-562 leukemia = test system: K-562 leukemia
SF-539 CNS = test system: SF-539 CNS
HT29 colon = test system: HT29 colon
NCI/ADR-RES ovarian = test system: NCI/ADR-RES ovarian
HOP-62 NSCLC = test system: HOP-62 NSCLC
EKVX NSCLC = test system: EKVX NSCLC
IGROV1 ovarian = test system: IGROV1 ovarian
HS 578T breast = test system: HS 578T breast
A549 NSCLC = test system: A549 NSCLC
U251 CNS = test system: U251 CNS
MDA-MB-435 = test system: MDA-MB-435
CCRF-CEM leukemia = test system: CCRF-CEM leukemia
SR leukemia = test system: SR leukemia

## O=C1CCCc2ccc3c(c21)CC1(Cc2ccccc2C1)C3
SK-OV-3 ovarian
  TGI: > 100 µM
UO-31 renal
  TGI: > 100 µM
K-562 leukemia
  TGI: 30 µM
SF-539 CNS
  TGI: > 100 µM
HT29 colon
  TGI: 45 µM
NCI/ADR-RES ovarian
  TGI: > 100 µM
HOP-62 NSCLC
  TGI: > 100 µM
EKVX NSCLC
  TGI: > 100 µM
IGROV1 ovarian
  TGI: > 100 µM
HS 578T breast
  TGI: > 100 µM
A549 NSCLC
  TGI: > 100 µM
U251 CNS
  TGI: > 100 µM
MDA-MB-435
  TGI: > 100 µM

## CSCCC(C(=O)O)N(CC1(O)OCC(O)C(O)C1O)N=O (centres undefined)
SK-OV-3 ovarian
  TGI: > 100 µM
UO-31 renal
  TGI: > 100 µM
K-562 leukemia
  TGI: > 100 µM
SF-539 CNS
  TGI: > 100 µM
HT29 colon
  TGI: > 100 µM
HOP-62 NSCLC
  TGI: > 100 µM
EKVX NSCLC
  TGI: > 100 µM
IGROV1 ovarian
  TGI: > 100 µM
A549 NSCLC
  TGI: > 100 µM
U251 CNS
  TGI: > 100 µM
CCRF-CEM leukemia
  TGI: > 100 µM

## CCOC(=O)CNc1nnnn1C1OC(CO)C(O)C1O (centres undefined)
SK-OV-3 ovarian
  TGI: > 100 µM
UO-31 renal
  TGI: > 100 µM
K-562 leukemia
  TGI: > 100 µM
SF-539 CNS
  TGI: > 100 µM
HT29 colon
  TGI: > 100 µM
HOP-62 NSCLC
  TGI: > 100 µM
EKVX NSCLC
  TGI: > 100 µM
IGROV1 ovarian
  TGI: > 100 µM
A549 NSCLC
  TGI: > 100 µM
U251 CNS
  TGI: > 100 µM
CCRF-CEM leukemia
  TGI: > 100 µM

## COc1cc(C2c3c(ccc4ccccc34)C(=O)C3CCC(=O)N32)cc(OC)c1O (centres undefined)
SR leukemia
  TGI: > 25 µM
SK-OV-3 ovarian
  TGI: > 25 µM
UO-31 renal
  TGI: > 25 µM
K-562 leukemia
  TGI: > 25 µM
SF-539 CNS
  TGI: > 25 µM
HT29 colon
  TGI: > 25 µM
NCI/ADR-RES ovarian
  TGI: > 25 µM
HOP-62 NSCLC
  TGI: > 25 µM
EKVX NSCLC
  TGI: > 25 µM
IGROV1 ovarian
  TGI: > 25 µM
A549 NSCLC
  TGI: > 25 µM
U251 CNS
  TGI: > 25 µM
CCRF-CEM leukemia
  TGI: > 25 µM
MDA-MB-435
  TGI: > 25 µM

## O=C1C=CC2(C=C1)C[C@H](NC(=O)OCc1ccccc1)C(=O)O2
SR leukemia
  TGI: 4.33 µM
SK-OV-3 ovarian
  TGI: > 92.3 µM
UO-31 renal
  TGI: 39.9 µM
K-562 leukemia
  TGI: > 32.5 µM
SF-539 CNS
  TGI: 44.5 µM
HT29 colon
  TGI: 31.9 µM
HOP-62 NSCLC
  TGI: > 69.2 µM
EKVX NSCLC
  TGI: 23.7 µM
IGROV1 ovarian
  TGI: 38.1 µM
HS 578T breast
  TGI: > 100 µM
A549 NSCLC
  TGI: > 78.5 µM
U251 CNS
  TGI: 37.1 µM
CCRF-CEM leukemia
  TGI: 10 µM

## CC1(C)OC(=O)C(Cc2ccccc2)(Cc2ccccc2)C(=O)O1
SR leukemia
  TGI: > 100 µM
SK-OV-3 ovarian
  TGI: > 100 µM
UO-31 renal
  TGI: > 100 µM
K-562 leukemia
  TGI: > 100 µM
SF-539 CNS
  TGI: > 100 µM
HT29 colon
  TGI: > 100 µM
NCI/ADR-RES ovarian
  TGI: > 100 µM
HOP-62 NSCLC
  TGI: > 100 µM
EKVX NSCLC
  TGI: > 100 µM
IGROV1 ovarian
  TGI: > 100 µM
HS 578T breast
  TGI: > 100 µM
A549 NSCLC
  TGI: > 100 µM
U251 CNS
  TGI: > 100 µM
CCRF-CEM leukemia
  TGI: > 100 µM

## Cn1c(N=P(c2ccccc2)(c2ccccc2)c2ccccc2)c([N+](=O)[O-])c(=O)n(C)c1=O
SK-OV-3 ovarian
  TGI: > 100 µM
UO-31 renal
  TGI: > 100 µM
K-562 leukemia
  TGI: > 100 µM
SF-539 CNS
  TGI: > 100 µM
HT29 colon
  TGI: > 100 µM
NCI/ADR-RES ovarian
  TGI: > 100 µM
HOP-62 NSCLC
  TGI: > 100 µM
EKVX NSCLC
  TGI: > 100 µM
IGROV1 ovarian
  TGI: > 100 µM
HS 578T breast
  TGI: > 100 µM
A549 NSCLC
  TGI: > 100 µM
U251 CNS
  TGI: > 100 µM
CCRF-CEM leukemia
  TGI: 76.6 µM
MDA-MB-435
  TGI: > 100 µM

## CCCN(CCC)C1=Nc2ccccc2-n2cnnc2C1
SR leukemia
  TGI: > 100 µM
UO-31 renal
  TGI: > 100 µM
K-562 leukemia
  TGI: > 100 µM
SF-539 CNS
  TGI: > 100 µM
HT29 colon
  TGI: > 100 µM
HOP-62 NSCLC
  TGI: > 100 µM
EKVX NSCLC
  TGI: > 100 µM
IGROV1 ovarian
  TGI: > 100 µM
A549 NSCLC
  TGI: > 100 µM
U251 CNS
  TGI: > 100 µM
CCRF-CEM leukemia
  TGI: > 100 µM

## CCOC(=O)c1cc(C2CCN(Cc3ccccc3)C2=S)c(C(=O)C=[N+]=[N-])[nH]1 (centres undefined)
SK-OV-3 ovarian
  TGI: > 100 µM
UO-31 renal
  TGI: 57.5 µM
K-562 leukemia
  TGI: > 100 µM
HT29 colon
  TGI: > 100 µM
NCI/ADR-RES ovarian
  TGI: 79.6 µM
HOP-62 NSCLC
  TGI: > 100 µM
EKVX NSCLC
  TGI: 89.6 µM
IGROV1 ovarian
  TGI: > 100 µM
HS 578T breast
  TGI: > 100 µM
A549 NSCLC
  TGI: > 100 µM
U251 CNS
  TGI: > 100 µM
CCRF-CEM leukemia
  TGI: > 100 µM
MDA-MB-435
  TGI: > 100 µM

From PubChem BioAssay (NCI)
